Experimental data taken from US20230381328A1, “COMPOUND FOR THE PREVENTION OR TREATMENT OF MYASTHENIA GRAVIS” (ABLEVIA BIOTECH GMBH, priority 2020, published 2023).

What was measured:
[1] = system: myasthenogenic antibody mAB 198; test: Peptide microarray mimotope screen, binding of mAB 198 to linear and cyclic peptides (fluorescence readout); design: species or system rat; settings: binding of mAB 198, relative fluorescent signal after normalization against background
Description: A custom peptide array of 30000 peptides was synthesized, with peptides of 7-19 amino acids in size; the peptides were based on substitution analyses of 176 AChR-MIR peptides with exchanges of each amino acid positions by each of the 20 common amino acids. Peptides were synthesized directly on a microarray, and screened with monoclonal antibody mAB 198 in order to obtain mimotopes with a binding strength which was improved over the human AChR alpha chain MIR-containing sequence […] (Tzartos et al, 1991; Luo et al, 2009) and over a previously published mimotope sequence ([…]), that was derived from Torpedo AchR with the help of antibody mAB 132A (Trinh et al, 2014). In particular, the wild type AChR-MIR sequence is known to structurally mimic to a certain extent the epitope recognized by myasthenogenic, unwanted and disease-causing antibodies from patients. The mimotope peptide library was designed by permutation of each single amino acid position of these two sequences with all natural amino acids in order to provide a maximally diversified collection of peptide variants. All peptides were synthesized in doublets as linear and as cyclic peptides. The aim was to obtain peptides (mimotopes) that mimic the natural epitope of myasthenogenic antibodies.
For the mimotope screen, the antibody mAB 198 (Absolute Antibody Ltd, UK) was used. This is a prototype antibody that was generated in rats using human AChR (Tzartos et al, 1983; Asher et al, 1993). […] Therefore, mAB198 was used as a surrogate probe to screen for new mimotopes that are capable of mimicking the corresponding AChR-MIR epitope or portions of the epitope.
As a readout, binding of mAB 198 to the 30000 linear and cyclic peptides was measured by fluorescence readout, and peptides were ranked according to their relative fluorescent signal after normalization against the background.
The top-ranked 100 linear and cyclic mimotopes are listed in Table 1 and Table 2 above, respectively.

[2] = molecular target: monoclonal antibody mAB 198; test: peptide microarray, fluorescence, linear peptide

| Molecule | relative signal [%] ([1]; cyclic mimotopes) | relative signal [%] ([1]; linear mimotopes) | further results |
| --- | --- | --- | --- |
| 133 (WNPADYP) [compound 133] | 21.1 | – | – |
| 199 (RLRTNPADY) [compound 199] | 8.6 | – | – |
| 117 (SLRVNPADY) [compound 117] | 26.5 | – | – |
| 22 (NPADYPG) [compound 22] | – | 19.8 | – |
| 190 (RWNPADF) [compound 190] | 9.1 | – | – |
| 76 (VPLRWNPAD) [compound 76] | – | 7.6 | – |
| 110 (DVRLRVNPADY) [compound 110] | 30.2 | – | – |
| 198 (LRFNPAD) [compound 198] | 8.6 | – | – |
| 184 (RLLWNPADY) [compound 184] | 9.7 | – | – |
| 107 (RLRLNPADY) [compound 107] | 37.3 | – | – |
| 103 (LRVNPADYG) [compound 103] | 45.1 | – | – |
| 121 (WNPADYR) [compound 121] | 24.9 | – | – |
| 91 (HSLRWNPAD) [compound 91] | – | 6.6 | – |
| 175 (RLRWNPADYHG) [compound 175] | 10.1 | – | – |
| 148 (VRLRVNPADYG) [compound 148] | 13.4 | – | – |
| 102 (RLRVNPADY) [compound 102] | 61.3 | – | – |
| 61 (RWNPADYGH) [compound 61] | – | 9.4 | – |
| 4 (VRLRWNPADYP) [compound 4] | – | 56.7 | – |
| 36 (SLHWNPADY) [compound 36] | – | 13.6 | – |
| 170 (GSLRFNPADYG) [compound 170] | 10.4 | – | – |
| 77 (YNLPWNP) [compound 77] | – | 7.6 | – |
| 38 (RGNPADYGG) [compound 38] | – | 13.0 | – |
| 44 (RINPADY) [compound 44] | – | 12.2 | – |
| 9 (LRVNPADYG) [compound 9] | – | 31.6 | – |
| 64 (WRLRWNPAD) [compound 64] | – | 9.0 | – |
| 116 (NPADYRG) [compound 116] | 27.4 | – | – |

| Molecule | relative signal [%] ([1]; cyclic mimotopes) | relative signal [%] ([1]; linear mimotopes) | further results |
| --- | --- | --- | --- |
| 1 (LRRNPAD) [compound 1] | – | 100.0 | – |
| 119 (GGSLRINPADY) [compound 119] | 25.4 | – | – |
| 90 (CNLKYNP) [compound 90] | – | 6.7 | – |
| 180 (TLRWNPADY) [compound 180] | 9.9 | – | – |
| 63 (LRINPAD) [compound 63] | – | 9.2 | – |
| 181 (VRLRGNPAD) [compound 181] | 9.9 | – | – |
| 12 (VRLRYNP) [compound 12] | – | 26.3 | – |
| 178 (VRLRINPADYG) [compound 178] | 10.0 | – | – |
| 98 (VDCNLKYNP) [compound 98] | – | 6.1 | – |
| 15 (RFNPADY) [compound 15] | – | 21.8 | – |
| 84 (RGNPADY) [compound 84] | – | 6.9 | – |
| 2 (NPADYRG) [compound 2] | – | 71.4 | – |
| 62 (GSLRFNPAD) [compound 62] | – | 9.3 | – |
| 70 (YNLKYNP) [compound 70] | – | 8.3 | – |
| 47 (WNPDDYR) [compound 47] | – | 11.4 | – |
| 191 (RLRGNPADYGG) [compound 191] | 9.0 | – | – |
| 122 (RLRYNPADY) [compound 122] | 24.5 | – | – |
| 196 (GSLRWNPADYT) [compound 196] | 8.7 | – | – |
| 134 (RYNPADY) [compound 134] | 20.2 | – | – |
| 188 (SLYWNPADY) [compound 188] | 9.4 | – | – |
| 106 (RFNPADY) [compound 106] | 37.5 | – | – |
| 150 (NPADYGD) [compound 150] | 12.6 | – | – |
| 50 (RLYWNPADY) [compound 50] | – | 11.0 | – |
| 171 (GGSLRWNPADR) [compound 171] | 10.3 | – | – |
| 41 (RWNPADF) [compound 41] | – | 12.6 | – |
| 157 (GSLRINPADYG) [compound 157] | 12.1 | – | – |

| Molecule | relative signal [%] ([1]; cyclic mimotopes) | relative signal [%] ([1]; linear mimotopes) | further results |
| --- | --- | --- | --- |
| 26 (LLGGGSLRFNP) [compound 26] | – | 16.7 | – |
| 145 (RLYWNPADY) [compound 145] | 13.7 | – | – |
| 144 (GGSLRFNPADY) [compound 144] | 14.5 | – | – |
| 73 (NPADYGI) [compound 73] | – | 8.0 | – |
| 5 (LRGNPAD) [compound 5] | – | 48.0 | – |
| 167 (DVRLRWNPSDY) [compound 167] | 10.5 | – | – |
| 174 (GSLRWNPADYD) [compound 174] | 10.2 | – | – |
| 159 (NPADYGY) [compound 159] | 11.8 | – | – |
| 92 (NPADYGN) [compound 92] | – | 6.5 | – |
| 149 (LRWNPADYP) [compound 149] | 13.1 | – | – |
| 136 (NPADYGR) [compound 136] | 19.5 | – | – |
| 67 (WNPDDYGHV) [compound 67] | – | 8.8 | – |
| 141 (SLRGNPADY) [compound 141] | 15.4 | – | – |
| 183 (RLRPNPADY) [compound 183] | 9.8 | – | – |
| 160 (ALRWNPADY) [compound 160] | 11.5 | – | – |
| 14 (VRLRRNPAD) [compound 14] | – | 25.0 | – |
| 182 (RSRWNPADY) [compound 182] | 9.8 | – | – |
| 21 (QWIDVRLRFNP) [compound 21] | – | 20.1 | – |
| 24 (RLNPADY) [compound 24] | – | 17.7 | – |
| 186 (GSLRWNPADYQ) [compound 186] | 9.7 | – | – |
| 151 (VNPADYG) [compound 151] | 12.5 | – | – |
| 39 (GGGSLRFNP) [compound 39] | – | 13.0 | – |
| 32 (RLRVNPADY) [compound 32] | – | 14.9 | – |
| 57 (RRNPADY) [compound 57] | – | 9.9 | – |
| 197 (NPADYGN) [compound 197] | 8.7 | – | – |
| 132 (RLRFNPADY) [compound 132] | 21.3 | – | – |

| Molecule | relative signal [%] ([1]; cyclic mimotopes) | relative signal [%] ([1]; linear mimotopes) | further results |
| --- | --- | --- | --- |
| 155 (SLRYNPADY) [compound 155] | 12.2 | – | – |
| 88 (HRLRWNPAD) [compound 88] | – | 6.7 | – |
| 99 (ALRWNPADY) [compound 99] | – | 6.0 | – |
| 165 (QLRWNPADY) [compound 165] | 10.7 | – | – |
| 162 (RIRWNPADY) [compound 162] | 11.5 | – | – |
| 194 (DVRLRQNPADY) [compound 194] | 8.8 | – | – |
| 51 (QWVDYNLKFNP) [compound 51] | – | 10.9 | – |
| LRRNPAD [LRRNPAD, linear mimotope] | – | – | relative signal [%] [2]: 100% |
| LRRNPADYG | – | – | relative signal [%] [2]: 28.3% |
| NPADYGV [NPADYGV, linear mimotope] | – | – | relative signal [%] [2]: 6% |
| VRLRFNP [VRLRFNP, linear mimotope] | – | – | relative signal [%] [2]: 27.1% |
| VRLRYNP [VRLRYNP, linear mimotope] | – | – | relative signal [%] [2]: 26.3% |
| LRLNPAD [LRLNPAD, linear mimotope] | – | – | relative signal [%] [2]: 25.2% |
| VRLRRNPAD | – | – | relative signal [%] [2]: 25% |
| RFNPADY [RFNPADY, linear mimotope] | – | – | relative signal [%] [2]: 21.8% |
| GSLRFNP [GSLRFNP, linear mimotope] | – | – | relative signal [%] [2]: 21.6% |
| NPDDYHG [NPDDYHG, linear mimotope] | – | – | relative signal [%] [2]: 21.3% |
| NPADYGY [NPADYGY, linear mimotope] | – | – | relative signal [%] [2]: 21.2% |
| WNPADYP [WNPADYP, linear mimotope] | – | – | relative signal [%] [2]: 20.5% |
| NPADYRG [NPADYRG, linear mimotope] | – | – | relative signal [%] [2]: 71.4% |
| RLHWNPADY | – | – | relative signal [%] [2]: 20.2% |
| QWIDVRLRFNP | – | – | relative signal [%] [2]: 20.1% |
| NPADYPG [NPADYPG, linear mimotope] | – | – | relative signal [%] [2]: 19.8% |
| NPADYGH [NPADYGH, linear mimotope] | – | – | relative signal [%] [2]: 18.1% |
